# Results from PMC2848589, “Raltegravir Is a Potent Inhibitor of XMRV, a Virus Implicated in Prostate Cancer and Chronic Fatigue Syndrome” (PLoS ONE, 2010).
# pEC50: −log10 of the molar value. Where two headings read alike, the source gives them in different places.
# Key:
# [1] = Cytotoxicity in PBM cells; assay type: cell-based; conditions: human, read-out: HIV-1 in PBM cells CC50
# Method: (§1) Each well was carefully monitored for signs of cellular toxicity due to the inhibitors by microscopic observation every 24 h. In addition, cell viability was measured using the CellTiter 96 AQueous One Solution cell proliferation assay according to the manufacturer (Promega, Madison, Wis). Viral release from the cells was assayed by measuring RT activity in the supernatant. For this, supernatant from each well was collected every 24 h and frozen at −20°C until it was analyzed by RT assay for viral release as described previously. In brief, oligo(dT)·poly(rA) primer-template assays were performed in the presence of radiolabeled [α-^32P]dTTP and Mn^2+. After incubating the viral supernatants with the RT reaction mix for 1 h at 37°C, samples were spotted onto DE81 DEAE cellulose paper (Whatman) and unincorporated label washed away with 2× SSC (1× SSC = 0.15 M NaCl and 0.015 M sodium citrate). […] Inhibition of viral release as measured on day 6 after inoculation was averaged over 3–5 experiments and plotted. The antiviral EC50 and cytotoxic concentrations (CC50,) was determined from the concentration–response curve using the median effect method. HIV-1 replication assays were performed as described previously using peripheral blood mononuclear cells (PBMC) obtained from the American Red Cross, Atlanta, GA, that were stimulated with phytohemagglutinin (PHA) for 72 hr.
# [2] = test system: XMRV; assay: XMRV replication in MCF-7 cells (viral release by RT activity in supernatant); assay type: cell-based; conditions: for pEC50 / EC90: MCF7, 144 h; for pEC50: read-out: XMRV in MCF-7 cells EC50; for EC90: read-out: XMRV in MCF-7 cells EC90; for activity against XMRV (in words): tested up to 100 µM, Figure 1
# [3] = test system: HIV-1LAI; assay: HIV-1 replication in PHA-stimulated peripheral blood mononuclear cells; assay type: cell-based; conditions: Human immunodeficiency virus 1, PBMC; for pEC50: read-out: HIV-1 in PBM cells EC50; for EC90: read-out: HIV-1 in PBM cells EC90
# Method: (§2) We tested a total of 45 compounds belonging to different classes of HIV-1 inhibitors, and a few inhibitors of viruses other than retroviruses, for their ability to inhibit XMRV replication in cultured cells. LNCaP and MCF-7 cells were chosen for their ability to support robust in vitro replication of XMRV. […] To determine if a reduction in viral release might be due to toxicity of the compound and not due to specific antiretroviral activity, cellular morphology was monitored every 24 h by microscopic examination, and an MTT [3-(4,5-dimethylthiazol-2-yl)-2,5-diphenyltetrazolium bromide] colorimetric assay was used to measure potential cytotoxicity produced by the compounds. Supernatants were collected every 24 h and assayed for viral release by measuring RT activity. […] For comparison purposes, all compounds evaluated in these studies were also tested against HIV-1LAI in primary human lymphocytes.
# as §1
# [4] = Cytotoxicity in MCF-7 cells (MTT / CellTiter 96 AQueous One); assay type: cell-based, human; conditions: human
# Method: as §2, §1
# [5] = peripheral blood mononuclear (PBM) cells
# [6] = MCF-7 cells, read-out: XMRV in MCF-7 cells CC50
# [7] = XMRV-infected MCF-7 cells, RT activity in supernatant, day 6
Structure (SMILES),"CC50 [1, 5] [µM]",pEC50 [2],EC90 [2] [µM],"therapeutic index (TI, the ratio of CC50/EC50) ([2]; XMRV, MCF-7 cells)",pEC50 [3],EC90 [3] [µM],CC50 [4] [µM],"CC50 [4, 6] [µM]",activity against XMRV (in words) [2],"pEC50 [2, 7]",CC50 [1] [µM]
"O=c1[nH]c(=O)n([C@H]2C[C@H](O)[C@@H](CO)O2)cc1I [5-Iodo-2'-deoxyuridine (IdUrd), 5-Iodo-2'-deoxyuridine]",85.1,5.66,> 100,low,4.60,38.9,7.3,–,–,–,–
Nc1nc(NC2CC2)c2ncn([C@H]3C=C[C@@H](CO)C3)c2n1 [Abacavir],92.9,< 4.00,> 100,–,6.77,1.7,–,92.6,–,–,–
"Nc1nc2c(ncn2COCCO)c(=O)[nH]1 [Acyclovir (ACV), Acyclovir]",> 100,< 4.00,> 100,–,< 4.00,> 100,77.6,–,–,–,–
"Nc1nc(N)c2ncn([C@H]3CO[C@@H](CO)O3)c2n1 [Amdoxovir (DAPD, AMDX), Amdoxovir]",> 100,< 4.00,> 100,–,6.08,4.8,–,> 100,essentially inactive,–,–
CC(C)CN(C[C@@H](O)[C@H](Cc1ccccc1)NC(=O)O[C@H]1CCOC1)S(=O)(=O)c1ccc(N)cc1 [Amprenavir],> 100,–,> 100,–,7.57,0.1,–,94.1,–,4.17,–
CC(=O)Oc1ccccc1C(=O)O [Aspirin],> 100,< 4.00,> 100,–,< 4.00,> 100,–,92.2,–,–,–
COC(=O)N[C@H](C(=O)N[C@@H](Cc1ccccc1)[C@@H](O)CN(Cc1ccc(-c2ccccn2)cc1)NC(=O)[C@@H](NC(=O)OC)C(C)(C)C)C(C)(C)C [Atazanavir],27.2,–,> 100,–,8.17,0.022,–,40.7,–,4.19,–
CC(O)(CS(=O)(=O)c1ccc(F)cc1)C(=O)Nc1ccc(C#N)c(C(F)(F)F)c1 (centres unmarked) [Bicalutamide],–,4.28,63.2,–,–,–,8.2,–,–,–,–
CCN(CC)CCCC(C)Nc1ccnc2cc(Cl)ccc12 (centres unmarked) [Chloroquine],–,4.24,> 100,–,5.05,21.6,–,–,–,–,–
CC(C)CN(C[C@@H](O)[C@H](Cc1ccccc1)NC(=O)O[C@H]1CO[C@H]2OCC[C@H]21)S(=O)(=O)c1ccc(N)cc1 [Darunavir],–,< 4.00,> 100,–,8.44,0.0065,–,–,essentially ineffective,–,–
"C[C@]12CC[C@H](O)CC1=CC[C@@H]1[C@@H]2CC[C@]2(C)C(=O)CC[C@@H]12 [Dehydroepiandrosterone (DHEA), Dehydroepiandrosterone]",–,4.16,> 100,–,4.82,71.2,–,64.1,–,–,> 100
O=C1Nc2ccc(Cl)cc2[C@@](C#CC2CC2)(C(F)(F)F)O1 [Efavirenz],18.4,4.29,93,–,9.14,0.0027,–,60.4,did not demonstrate any major activity,–,–
"Nc1nc(=O)n([C@@H]2CS[C@H](CO)O2)cc1F [Emtricitabine [(-)-FTC], Emtricitabine]",> 100,< 4.00,> 100,–,8.18,0.052,> 100,–,essentially inactive,–,–
"C=C1[C@H](CO)[C@@H](O)C[C@@H]1n1cnc2c(=O)[nH]c(N)nc21 [Entecavir (ETV), Entecavir]",25.2,< 4.00,> 100,–,5.68,16.3,93.3,–,–,–,–
"O=C(O)P(=O)(O)O [Foscarnet (PFA), Foscarnet]",> 100,4.38,> 100,–,4.57,71.9,–,> 100,–,–,–
"Nc1nc(O)c2ncn(COC(CO)CO)c2n1 [Ganciclovir (GCV), Ganciclovir]",> 100,< 4.00,> 100,–,< 4.00,> 100,> 100,–,–,–,–
CC(C)(C)NC(=O)[C@@H]1CN(Cc2cccnc2)CCN1C[C@@H](O)C[C@@H](Cc1ccccc1)C(=O)N[C@H]1c2ccccc2C[C@H]1O [Indinavir],> 100,< 4.00,> 100,–,7.74,0.064,69.9,–,essentially ineffective,–,–
"Nc1ccn([C@@H]2CS[C@H](CO)O2)c(=O)n1 [Lamivudine (3TC), Lamivudine]",41.9,< 4.00,> 100,–,7.07,0.36,> 100,–,essentially inactive,–,–
Cc1cccc(C)c1OCC(=O)N[C@@H](Cc1ccccc1)[C@@H](O)C[C@H](Cc1ccccc1)NC(=O)[C@H](C(C)C)N1CCCNC1=O [Lopinavir],36,–,> 100,–,7.96,0.029,8.5,–,–,4.14,–
CN(C)c1ccc2nc3ccc(=[N+](C)C)cc-3sc2c1 [Methylene blue],6.1,6.38,2.7,–,7.62,0.5,7.2,–,–,–,–
Cc1c(O)cccc1C(=O)N[C@@H](CSc1ccccc1)[C@H](O)CN1C[C@H]2CCCC[C@H]2C[C@H]1C(=O)NC(C)(C)C [Nelfinavir],73.8,–,> 100,–,7.74,0.067,7.4,–,–,4.46,–
"Nc1nc2c(ncn2CCC(CO)CO)c(=O)[nH]1 [Penciclovir (PCV), Penciclovir]",> 100,< 4.00,> 100,–,< 4.00,> 100,98.1,–,–,–,–
"NC(=O)c1ncn([C@@H]2O[C@H](CO)[C@@H](O)[C@H]2O)n1 [Ribavirin (RBV), Ribavirin]",> 100,4.28,> 100,–,5.19,> 100,74.1,–,–,–,–
CC(C)c1nc(CN(C)C(=O)N[C@H](C(=O)N[C@@H](Cc2ccccc2)C[C@H](O)[C@H](Cc2ccccc2)NC(=O)OCc2cncs2)C(C)C)cs1 [Ritonavir],–,–,> 100,–,6.82,0.4,–,–,–,4.12,–
CC(C)(C)NC(=O)[C@@H]1C[C@@H]2CCCC[C@@H]2CN1C[C@@H](O)[C@H](Cc1ccccc1)NC(=O)[C@H](CC(N)=O)NC(=O)c1ccc2ccccc2n1 [Saquinavir],26.7,< 4.00,> 100,–,8.19,0.021,53.7,–,essentially ineffective,–,–
"CC(C)=CCN1Cc2c(Cl)ccc3[nH]c(=S)n(c23)C[C@@H]1C [TIBO analog, (4S)-8-Chloro-4-methyl-5-(3-methylbut-2-enyl)-3,4,5,6-tetrahydro-1H-[1], [3]diazepino[4,5,6-cd]indole-2(2aH)-thione]",–,–,–,–,–,–,–,–,did not demonstrate any major activity,–,–
"Cc1cn([C@@H]2C[C@@H](O)[C@H](CO)O2)c(=O)[nH]c1=O [Telbivudine (LdT), Telbivudine]",> 100,< 4.00,> 100,–,< 4.00,> 100,88.3,–,–,–,–
"C[C@H](Cn1cnc2c(N)ncnc21)OCP(=O)(O)O [Tenofovir (TNV), Tenofovir]",> 100,4.08,> 100,–,6.06,6.6,–,79.6,ineffective,–,–
CCC[C@@]1(CCc2ccccc2)CC(O)=C([C@H](CC)c2cccc(NS(=O)(=O)c3ccc(C(F)(F)F)cn3)c2)C(=O)O1 [Tipranavir],> 100,< 4.00,> 100,–,7.46,0.17,–,75.6,essentially ineffective,–,–
